Experiments:
Type in all cases: in vivo
[1] = test system: Italian ryegrass (Lolium multiflorum); assay: Test A postemergence, visual injury rating; conditions: Lolium multiflorum, post-emergence, 240 h, 0 is no effect, 100 is complete control, read-out: Ryegrass, Italian plant response rating (0 to 100 scale)
Summary of the method: (§1)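 Visual injury scored 0–100 (100 = complete control) against untreated controls about 10 days after treatment in a greenhouse. Test chemicals, formulated with surfactant in non-phytotoxic solvent, were sprayed on soil preemergence or on 2-10 cm, one- to two-leaf plants postemergence.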

[2] = test system: barnyardgrass (Echinochloa crus-galli); assay: Test A postemergence, visual injury rating; conditions: Echinochloa crus-galli, post-emergence, 240 h, 0 is no effect, 100 is complete control, read-out: Barnyardgrass plant response rating (0 to 100 scale)
Summary of the method: as §1

[3] = test system: blackgrass (Alopecurus myosuroides); assay: Test A postemergence, visual injury rating; conditions: Alopecurus myosuroides, post-emergence, 240 h, 0 is no effect, 100 is complete control, read-out: Blackgrass plant response rating (0 to 100 scale)
Summary of the method: as §1

corn (Zea mays) = assay: Test A postemergence, visual injury rating; conditions: Zea mays, post-emergence, 240 h, 0 is no effect, 100 is complete control, read-out: Corn plant response rating (0 to 100 scale)
Summary of the method: as §1

[4] = test system: galium (catchweed bedstraw, Galium aparine); assay: Test A postemergence, visual injury rating; conditions: Galium, post-emergence, 240 h, 0 is no effect, 100 is complete control, read-out: Galium plant response rating (0 to 100 scale)
Summary of the method: as §1

[5] = test system: giant foxtail (Setaria faberii); assay: Test A postemergence, visual injury rating; conditions: Setaria faberi, post-emergence, 240 h, 0 is no effect, 100 is complete control, read-out: Foxtail, Giant plant response rating (0 to 100 scale)
Summary of the method: as §1

kochia (Kochia scoparia) = assay: Test A postemergence, visual injury rating; conditions: Bassia scoparia, post-emergence, 240 h, 0 is no effect, 100 is complete control, read-out: Kochia plant response rating (0 to 100 scale)
Summary of the method: as §1

[6] = test system: pigweed (Amaranthus retroflexus); assay: Test A postemergence, visual injury rating; conditions: Amaranthus retroflexus, post-emergence, 240 h, 0 is no effect, 100 is complete control, read-out: Pigweed plant response rating (0 to 100 scale)
Summary of the method: as §1

[7] = test system: ragweed (common ragweed, Ambrosia elatior); assay: Test A postemergence, visual injury rating; conditions: Ambrosia artemisiifolia, post-emergence, 240 h, 0 is no effect, 100 is complete control, read-out: Ragweed plant response rating (0 to 100 scale)
Summary of the method: as §1

[8] = test system: wheat (Triticum aestivum); assay: Test A postemergence, visual injury rating; conditions: Triticum aestivum, post-emergence, 240 h, 0 is no effect, 100 is complete control, read-out: Wheat plant response rating (0 to 100 scale)
Summary of the method: as §1

[9] = test system: lambsquarters (Chenopodium album); assay: Test C preemergence, plant response rating; conditions: Chenopodium album, pre-emergence, Preemergence
Summary of the method: (§2)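 Greenhouse plants rated visually against untreated controls 13–15 d after treatment, scale 0 = no effect to 100 = complete control. Postemergence sprays went onto potted plants 2–18 cm tall (1–4 leaves); preemergence sprays onto soil freshly sown in loam–sand or silt loam, chemicals formulated in non-phytotoxic solvent with surfactant.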

[10] = test system: morningglory (Ipomoea coccinea); assay: Test C preemergence, plant response rating; conditions: Ipomoea, pre-emergence, Preemergence
Summary of the method: as §2

[11] = test system: nutsedge, yellow (yellow nutsedge, Cyperus esculentus); assay: Test C preemergence, plant response rating; conditions: Cyperus, pre-emergence, Preemergence
Summary of the method: as §2

[12] = test system: velvetleaf (Abutilon theophrasti); assay: Test C preemergence, plant response rating; conditions: Abutilon theophrasti, pre-emergence, Preemergence
Summary of the method: as §2

[13] = test system: waterhemp (common waterhemp, Amaranthus rudis); assay: Test C preemergence, plant response rating; conditions: Amaranthus tuberculatus, pre-emergence, Preemergence
Summary of the method: as §2

[14] = test system: wheat (winter wheat, Triticum aestivum); assay: Test C preemergence, plant response rating; conditions: Triticum aestivum, pre-emergence, Preemergence
Summary of the method: as §2

[15] = test system: barnyardgrass (Echinochloa crus-galli); assay: Test C postemergence, plant response rating; conditions: Echinochloa crus-galli, post-emergence
Summary of the method: as §2

[16] = test system: crabgrass, large (large crabgrass, Digitaria sanguinalis); assay: Test C postemergence, plant response rating; conditions: Digitaria sanguinalis, post-emergence
Summary of the method: as §2

[17] = test system: ryegrass, Italian (Italian ryegrass, Lolium multiflorum); assay: Test C postemergence, plant response rating; conditions: Lolium multiflorum, post-emergence
Summary of the method: as §2

[18] = 62 g ai/ha, scale 0 to 100 (0 no effect, 100 complete control)
[19] = 125 g ai/ha, scale 0 to 100 (0 no effect, 100 complete control)

Q: How did the pest or weed control at 125 g/ha ([1]; 125 g ai/ha) turn out when C=CCCOC(=O)c1c(Br)cccc1Oc1ncc(Cl)cn1 [Compound 21, 3-buten-1-yl 2-bromo-6-[(5-chloro-2-pyrimidinyl)oxy]benzoate] was run?
A: 0%

Q: And the pest or weed control at 500 g/ha ([1]; 500 g ai/ha)?
A: 90%

Q: What about the pest or weed control at 125 g/ha ([2]; 125 g ai/ha) of the same compound?
A: 70%

Q: What about the pest or weed control at 500 g/ha ([2]; 500 g ai/ha) of the same compound?
A: 100%

Q: And the pest or weed control at 125 g/ha ([3]; 125 g ai/ha)?
A: 60%

Q: What about the pest or weed control at 500 g/ha ([3]; 500 g ai/ha) of the same compound?
A: 80%

Q: What about the plant injury at 125 g/ha (corn (Zea mays); 125 g ai/ha) of the same compound?
A: 30%

Q: And the plant injury at 500 g/ha (corn (Zea mays); 500 g ai/ha)?
A: 60%

Q: And the pest or weed control at 125 g/ha ([4]; 125 g ai/ha)?
A: 80%

Q: What about the pest or weed control at 500 g/ha ([4]; 500 g ai/ha) of the same compound?
A: 90%

Q: What about the pest or weed control at 125 g/ha ([5]; 125 g ai/ha) of the same compound?
A: 70%

Q: What about the pest or weed control at 500 g/ha ([5]; 500 g ai/ha) of the same compound?
A: 100%

Q: What about the pest or weed control at 125 g/ha (kochia (Kochia scoparia); 125 g ai/ha) of the same compound?
A: 90%

Q: What about the pest or weed control at 500 g/ha (kochia (Kochia scoparia); 500 g ai/ha) of the same compound?
A: 100%

Q: And the pest or weed control at 125 g/ha ([6]; 125 g ai/ha)?
A: 80%

Q: And the pest or weed control at 500 g/ha ([6]; 500 g ai/ha)?
A: 100%

Q: What about the pest or weed control at 125 g/ha ([7]; 125 g ai/ha) of the same compound?
A: 0%

Q: And the pest or weed control at 500 g/ha ([7]; 500 g ai/ha)?
A: 40%

Q: And the plant injury at 125 g/ha ([8]; 125 g ai/ha)?
A: 0%

Q: What about the plant injury at 500 g/ha ([8]; 500 g ai/ha) of the same compound?
A: 40%

Q: What about the pest or weed control at 125 g/ha ([9]; 125 g ai/ha, scale of 0 to 100) of the same compound?
A: 70%

Q: What about the pest or weed control at 16 g/ha ([9]; 16 g ai/ha, scale 0 to 100) of the same compound?
A: 0%

Q: And the pest or weed control at 31 g/ha ([9]; 31 g ai/ha, scale 0 to 100)?
A: 30%

Q: And the pest or weed control at 62 g/ha ([9]; 62 g ai/ha, scale 0 to 100)?
A: 25%

Q: And the pest or weed control at 125 g/ha ([10]; 125 g ai/ha, scale of 0 to 100)?
A: 10%

Q: What about the pest or weed control at 16 g/ha ([10]; 16 g ai/ha, scale 0 to 100) of the same compound?
A: 0%

Q: What about the pest or weed control at 31 g/ha ([10]; 31 g ai/ha, scale 0 to 100) of the same compound?
A: 0%

Q: And the pest or weed control at 62 g/ha ([10]; 62 g ai/ha, scale 0 to 100)?
A: 5%

Q: What about the pest or weed control at 125 g/ha ([11]; 125 g ai/ha, scale of 0 to 100) of the same compound?
A: 0%

Q: And the pest or weed control at 16 g/ha ([11]; 16 g ai/ha, scale 0 to 100)?
A: 0%

Q: And the pest or weed control at 31 g/ha ([11]; 31 g ai/ha, scale 0 to 100)?
A: 0%

Q: And the pest or weed control at 62 g/ha ([11]; 62 g ai/ha, scale 0 to 100)?
A: 0%

Q: And the pest or weed control at 125 g/ha ([12]; 125 g ai/ha, scale of 0 to 100)?
A: 100%

Q: And the pest or weed control at 16 g/ha ([12]; 16 g ai/ha, scale 0 to 100)?
A: 10%

Q: And the pest or weed control at 31 g/ha ([12]; 31 g ai/ha, scale 0 to 100)?
A: 40%

Q: And the pest or weed control at 62 g/ha ([12]; 62 g ai/ha, scale 0 to 100)?
A: 70%

Q: What about the pest or weed control at 125 g/ha ([13]; 125 g ai/ha, scale of 0 to 100) of the same compound?
A: 98%

Q: And the pest or weed control at 16 g/ha ([13]; 16 g ai/ha, scale 0 to 100)?
A: 70%

Q: And the pest or weed control at 31 g/ha ([13]; 31 g ai/ha, scale 0 to 100)?
A: 75%

Q: What about the pest or weed control at 62 g/ha ([13]; 62 g ai/ha, scale 0 to 100) of the same compound?
A: 95%

Q: And the plant injury at 125 g/ha ([14]; 125 g ai/ha, scale of 0 to 100)?
A: 0%

Q: What about the plant injury at 16 g/ha ([14]; 16 g ai/ha, scale 0 to 100) of the same compound?
A: 0%

Q: And the plant injury at 31 g/ha ([14]; 31 g ai/ha, scale 0 to 100)?
A: 0%

Q: And the plant injury at 62 g/ha ([14]; 62 g ai/ha, scale 0 to 100)?
A: 0%

Q: And the pest or weed control at 16 g/ha ([15]; 16 g ai/ha, scale 0 to 100)?
A: 10%

Q: What about the pest or weed control at 31 g/ha ([15]; 31 g ai/ha, scale 0 to 100) of the same compound?
A: 10%

Q: And the pest or weed control at 62 g/ha [15, 18]?
A: 20%

Q: What about the pest or weed control at 125 g/ha [15, 19] of the same compound?
A: 20%

Q: And the pest or weed control at 16 g/ha ([16]; 16 g ai/ha, scale 0 to 100)?
A: 10%

Q: And the pest or weed control at 31 g/ha ([16]; 31 g ai/ha, scale 0 to 100)?
A: 20%

Q: What about the pest or weed control at 62 g/ha [16, 18] of the same compound?
A: 25%

Q: And the pest or weed control at 125 g/ha [16, 19]?
A: 35%

Q: And the pest or weed control at 16 g/ha ([17]; 16 g ai/ha, scale 0 to 100)?
A: 0%

Q: What about the pest or weed control at 31 g/ha ([17]; 31 g ai/ha, scale 0 to 100) of the same compound?
A: 0%

Q: What about the pest or weed control at 62 g/ha [17, 18] of the same compound?
A: 0%

Q: And the pest or weed control at 125 g/ha [17, 19]?
A: 15%

From patent US11053204B2, “Pyrimidinyloxy benzene derivatives as herbicides” (FMC Corporation, priority 2015, dated 2021)
